The target in one assay is human TASK-3 (Homo sapiens (Human), UniProt Q9NPC2). The experiment in a line: Inhibition of recombinant TASK-3 in stably transfected CHO cells (voltage-sensitive dye, KCl depolarization). The assay is classed as cell-based. Conditions: depolarization by 40 mM potassium chloride. The procedure:
(§1) B-2. Inhibition of Recombinant TASK-1 and TASK-3 In Vitro
(§2) The investigations on the inhibition of the recombinant TASK-1 and TASK-3 channels were conducted using stably transfected CHO cells. The compounds according to the invention were tested in this case by application of 40 mM potassium chloride in the presence of a voltage-sensitive dye according to the method described in detail in the following references [Whiteaker et al., Validation of FLIPR membrane potential dye for high-throughput screening of potassium channel modulators, J. Biomol. Screen. 6 (5), 305-312 (2001); Molecular Devices FLIPR Application Note: Measuring membrane potential using the FLIPR® membrane potential assay kit on Fluorometric Imaging Plate Reader (FLIPR®) systems, http://www.moleculardevices.com/reagents-supplies/assay-kits/ion-channels/flipr-membrane-potential-assay-kits]. The activity of the test substances was determined as their ability to inhibit a depolarization induced in the recombinant cells by 40 mM potassium chloride. The concentration which can block half of this depolarization is referred to as IC50.

For the next assay, the target named is human TASK-1 (Homo sapiens (Human), UniProt O14649). Kind of assay: Inhibition of recombinant TASK-1 in stably transfected CHO cells (voltage-sensitive dye, KCl depolarization). The assay is classed as cell-based. To be noted: depolarization by 40 mM potassium chloride. The procedure: as §1, §2

In general, IC50 refers to the point on the concentration scale where inhibition reaches its midpoint.

Sequence of human TASK-3 (Q9NPC2 whole entry): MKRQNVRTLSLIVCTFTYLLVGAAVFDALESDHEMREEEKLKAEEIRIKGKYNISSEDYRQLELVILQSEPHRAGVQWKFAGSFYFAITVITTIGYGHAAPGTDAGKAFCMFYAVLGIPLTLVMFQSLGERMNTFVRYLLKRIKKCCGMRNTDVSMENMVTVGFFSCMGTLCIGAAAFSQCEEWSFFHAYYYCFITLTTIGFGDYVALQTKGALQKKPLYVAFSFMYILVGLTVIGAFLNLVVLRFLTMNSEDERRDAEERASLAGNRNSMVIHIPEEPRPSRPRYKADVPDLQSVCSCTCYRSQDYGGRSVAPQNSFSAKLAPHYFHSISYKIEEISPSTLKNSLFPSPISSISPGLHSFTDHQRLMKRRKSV
Sequence of human TASK-1 (O14649 whole entry): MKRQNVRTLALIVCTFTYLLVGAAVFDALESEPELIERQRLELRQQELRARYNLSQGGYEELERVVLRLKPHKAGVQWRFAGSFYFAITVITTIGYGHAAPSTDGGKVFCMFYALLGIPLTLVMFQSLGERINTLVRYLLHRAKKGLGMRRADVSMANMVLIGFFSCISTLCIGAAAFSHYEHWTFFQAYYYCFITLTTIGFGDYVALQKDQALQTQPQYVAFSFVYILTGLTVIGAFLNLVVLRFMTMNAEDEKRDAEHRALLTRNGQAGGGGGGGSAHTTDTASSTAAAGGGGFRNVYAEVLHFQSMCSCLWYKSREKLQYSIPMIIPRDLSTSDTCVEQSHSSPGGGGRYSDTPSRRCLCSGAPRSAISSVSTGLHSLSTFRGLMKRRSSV

On to `CCc1ccccc1NC(=O)N1C2CCC1CN(Cc1c(-c3ccc(Cl)cc3)nc3ncccn13)C2` [Example 95, 3-{[2-(4-chlorophenyl)imidazo[1,2-a]pyrimidin-3-yl]methyl}-N-(2-ethylphenyl)-3,8-diazabicyclo[3.2.1]octane-8-carboxamide], for which the half-maximal inhibitory concentration (IC50) stood at 41 nM at human TASK-3 and 3000 nM at human TASK-1.
For `CCN(C(=O)N1C2CCC1CN(Cc1c(-c3ccc(Cl)cc3)nc3ncccn13)C2)c1ccccc1` [Example 114, 3-{[2-(4-chlorophenyl)imidazo[1,2-a]pyrimidin-3-yl]methyl}-N-ethyl-N-phenyl-3,8-diazabicyclo[3.2.1]octane-8-carboxamide], in that order: 140 nM and 6700 nM.
Turning to `O=C(c1ncoc1C1CC1)N1C2CCC1CN(Cc1c(-c3ccc(C4CC4)cc3)nc3ncccn13)C2` [Example 139, (5-cyclopropyl-1,3-oxazol-4-yl)(3-{[2-(4-cyclopropylphenyl)imidazo[1,2-a]pyrimidin-3-yl]methyl}-3,8-diazabicyclo[3.2.1]octan-8-yl)methanone], the IC50 on human TASK-3 was 470 nM; at human TASK-1, 4500 nM.
Turning to `COc1cccc(C(=O)N2C3CCC2CN(Cc2c(-c4ccc(Cl)cc4)nc4ncccn24)C3)n1` [Example 20, (3-{[2-(4-Chlorophenyl)imidazo[1,2-a]pyrimidin-3-yl]methyl}-3,8-diazabicyclo[3.2.1]oct-8-yl)(6-methoxypyridin-2-yl)methanone], the IC50 on human TASK-3 is 38 nM; at human TASK-1, 160 nM.
`CC(C)c1ccc(-c2nc3ncccn3c2CN2CC3CCC(C2)N3C(=O)c2ncoc2C2CC2)cc1` [Example 131, (5-Cyclopropyl-1,3-oxazol-4-yl)(3-{[2-(4-isopropylphenyl)imidazo[1,2-a]pyrimidin-3-yl]methyl}-3,8-diazabicyclo[3.2.1]oct-8-yl)methanone]: the values for the IC50 on human TASK-3 and at human TASK-1 were 410 nM and 3500 nM, respectively.
Consider `CCN(CC)C(=O)N1C2CCC1CN(Cc1c(-c3ccc(Cl)cc3)nc3ncccn13)C2` [Example 109, 3-{[2-(4-chlorophenyl)imidazo[1,2-a]pyrimidin-3-yl]methyl}-N,N-diethyl-3,8-diazabicyclo[3.2.1]octane-8-carboxamide], for which the IC50 amounted to 1.5 nM at human TASK-3 and 24 nM at human TASK-1.
For `CC(C)c1ccc(-c2nc3ncccn3c2CN2CC3CCC2CN3C(=O)OC(C)(C)C)cc1` (racemic) [Example 7, tert-Butyl 5-{[2-(4-isopropylphenyl)imidazo[1,2-a]pyrimidine-3-yl]methyl}-2,5-diazabicyclo[2.2.2]octane-2-carboxylate], in that order: 570 nM and 8600 nM.
For `COc1ccc(C)c(C(=O)N2CC3CCC2CN3Cc2c(-c3ccc(Cl)cc3)nc3ncccn23)n1` (single isomer, unassigned) [Example 25, (5-{[2-(4-Chlorophenyl)imidazo[1,2-a]pyrimidin-3-yl]methyl}-2,5-diazabicyclo[2.2.2]oct-2-yl)(6-methoxy-3-methylpyridin-2-yl)methanone], in that order: 71 nM and 1100 nM.
Take `CC(C)(C)OC(=O)N1C2CCC1CN(Cc1c(-c3ccc(C4CC4)cc3)nc3ncccn13)C2` [Example 132, tert-Butyl 3-{[2-(4-cyclopropylphenyl)imidazo[1,2-a]pyrimidin-3-yl]methyl}-3,8-diazabicyclo[3.2.1]octane-8-carboxylate]: the IC50 at human TASK-3 came out at 410 nM; on human TASK-1, 1700 nM.
Regarding `O=C(Nc1cc(C(F)(F)F)ccc1Cl)N1C2CCC1CN(Cc1c(-c3ccc(Cl)cc3)nc3ncccn13)C2` [Example 97, 3-{[2-(4-chlorophenyl)imidazo[1,2-a]pyrimidin-3-yl]methyl}-N-[2-chloro-5-(trifluoromethyl)phenyl]-3,8-diazabicyclo[3.2.1]octane-8-carboxamide], the IC50 at human TASK-3 was determined as 450 nM; at human TASK-1, 31000 nM.
The corresponding values for `CC(C)c1ccc(-c2nc3ncccn3c2CN2CC3CCC2CN3C(=O)c2ncoc2C2CC2)cc1` (centres unmarked) [Example 70] are 20 nM and 1900 nM.
In the case of `COc1cccc(C(=O)N2CC3CCC2CN3Cc2c(-c3ccc(Cl)cc3)nc3ncccn23)n1` (centres unmarked) [Example 40], the results for the IC50 at human TASK-3 and at human TASK-1 were 210 nM and 5700 nM, respectively.
`COc1ccc(Cl)c(C(=O)N2CC3CCC2CN3Cc2c(-c3ccc(Cl)cc3)nc3ncccn23)n1` (centres unmarked) [Example 45]: the IC50 on human TASK-3 turned out to be 120 nM; on human TASK-1 it was 1800 nM.
Regarding `CC(C)NC(=O)N1C2CCC1CN(Cc1c(-c3ccc(Cl)cc3)nc3ncccn13)C2` [Example 86, 3-{[2-(4-chlorophenyl)imidazo[1,2-a]pyrimidin-3-yl]methyl}-N-isopropyl-3,8-diazabicyclo[3.2.1]octane-8-carboxamide], the IC50 at human TASK-3 is 430 nM; at human TASK-1 it was 7700 nM.
As to `CC(C)(C)OC(=O)N1C2CCC1CN(Cc1c(-c3ccc(Cl)cc3)nc3ncccn13)C2` [Example 6, tert-Butyl 3-{[2-(4-chlorophenyl)imidazo[1,2-a]pyrimidin-3-yl]methyl}-3,8-diazabicyclo[3.2.1]octane-8-carboxylate], the IC50 was determined as 41 nM on human TASK-3 and 1400 nM on human TASK-1.
For `CC(C)c1ccc(-c2nc3ncccn3c2CN2CC3COCC(C2)N3C(=O)c2ccccc2F)cc1` [Example 68], in that order: 87 nM and 9400 nM.
As to `O=C(Nc1ccc(Cl)cc1C(F)(F)F)N1C2CCC1CN(Cc1c(-c3ccc(Cl)cc3)nc3ncccn13)C2` [Example 106, 3-{[2-(4-chlorophenyl)imidazo[1,2-a]pyrimidin-3-yl]methyl}-N-[4-chloro-2-(trifluoromethyl)phenyl]-3,8-diazabicyclo[3.2.1]octane-8-carboxamide], the IC50 stood at 89 nM on human TASK-3 and 30000 nM at human TASK-1.
For `O=C(Nc1ccccc1F)N1C2CCC1CN(Cc1c(-c3ccc(Cl)cc3)nc3ncccn13)C2` [Example 93, 3-{[2-(4-chlorophenyl)imidazo[1,2-a]pyrimidin-3-yl]methyl}-N-(2-fluorophenyl)-3,8-diazabicyclo[3.2.1]octane-8-carboxamide], in that order: 260 nM and 12000 nM.
Consider `CNc1cccc(C(=O)N2C3CCC2CN(Cc2c(-c4ccc(C(C)C)cc4)nc4ncccn24)C3)n1` [Example 62], for which the IC50 stood at 70 nM on human TASK-3 and 6900 nM on human TASK-1.
As to `COc1ccc(F)c(C(=O)N2CC3CCC2CN3Cc2c(-c3ccc(Cl)cc3)nc3ncccn23)n1` (single isomer, unassigned) [Example 24, (5-{[2-(4-Chlorophenyl)imidazo[1,2-a]pyrimidin-3-yl]methyl}-2,5-diazabicyclo[2.2.2]oct-2-yl)(3-fluoro-6-methoxypyridin-2-yl)methanone], the IC50 on human TASK-3 came out at 102 nM; at human TASK-1 it was 410 nM.
With `Cc1cccc(C)c1NC(=O)N1C2CCC1CN(Cc1c(-c3ccc(Cl)cc3)nc3ncccn13)C2` [Example 92, 3-{[2-(4-chlorophenyl)imidazo[1,2-a]pyrimidin-3-yl]methyl}-N-(2,6-dimethylphenyl)-3,8-diazabicyclo[3.2.1]octane-8-carboxamide], the results for the IC50 at human TASK-3 and on human TASK-1 were 270 nM and 15000 nM, respectively.
The corresponding values for `COc1cccc(C(=O)N2C3CCC2CN(Cc2c(-c4ccc(C5CC5)cc4)nc4ncccn24)C3)n1` [Example 137, (3-{[2-(4-cyclopropylphenyl)imidazo[1,2-a]pyrimidin-3-yl]methyl}-3,8-diazabicyclo[3.2.1]octan-8-yl)(6-methoxypyridin-2-yl)methanone] are 180 nM and 1100 nM.
For `Cc1ccc(C)c(NC(=O)N2C3CCC2CN(Cc2c(-c4ccc(Cl)cc4)nc4ncccn24)C3)c1` [Example 99, 3-{[2-(4-chlorophenyl)imidazo[1,2-a]pyrimidin-3-yl]methyl}-N-(2,5-dimethylphenyl)-3,8-diazabicyclo[3.2.1]octane-8-carboxamide], in that order: 750 nM and 30000 nM.
The corresponding values for `COc1cccc(C(=O)N2CC3CCC2CN3Cc2c(-c3ccc(Cl)cc3)nc3ncccn23)n1` (centres unmarked) [Example 44] are 190 nM and 1000 nM.
`CC(c1c(-c2ccc(Cl)cc2)nc2ncccn12)N1CC2CCC(C1)N2C(=O)OC(C)(C)C` (racemic) [Example 10, tert-Butyl 3-{1-[2-(4-chlorophenyl)imidazo[1,2-a]pyrimidin-3-yl]ethyl}-3,8-diazabicyclo[3.2.1]octane-8-carboxylate]: the IC50 was found to be 130 nM on human TASK-3 and 2200 nM at human TASK-1.
The corresponding values for `O=C(N1CCCCC1)N1C2CCC1CN(Cc1c(-c3ccc(Cl)cc3)nc3ncccn13)C2` [Example 116, (3-{[2-(4-chlorophenyl)imidazo[1,2-a]pyrimidin-3-yl]methyl}-3,8-diazabicyclo[3.2.1]oct-8-yl)(piperidin-1-yl)methanone] are 65 nM and 2700 nM.
The corresponding values for `COc1ccc(F)c(C(=O)N2CC3CCC2CN3Cc2c(-c3ccc(C(C)C)cc3)nc3ncccn23)n1` (centres unmarked) [Example 72] are 29 nM and 2100 nM.
Take `O=C(Nc1cccc(Cl)c1Cl)N1C2CCC1CN(Cc1c(-c3ccc(Cl)cc3)nc3ncccn13)C2` [Example 94, 3-{[2-(4-chlorophenyl)imidazo[1,2-a]pyrimidin-3-yl]methyl}-N-(2,3-dichlorophenyl)-3,8-diazabicyclo[3.2.1]octane-8-carboxamide]: the IC50 at human TASK-3 stood at 160 nM; at human TASK-1, 30000 nM.

The values above are taken from patent US11098063B2, “Diazabicyclic substituted imidazopyrimidines and their use for the treatment of breathing disorders” (Bayer Aktiengesellschaft, priority 2017, dated 2021).
